Measured values: US8247211B2, “Glycopeptide antibiotics” (American Cyanamid Company, priority 2001, dated 2012)

Experiments:
Experiment in all cases: In vitro antibacterial evaluation: minimum inhibitory concentration (MIC), broth dilution method
Type in all cases: cell-based
Details in all cases: 18 hours at 35° C.
Escherichia coli = test system: Escherichia coli
In short: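 Inoculum: 5×10^5 CFU/mL. Range: 64-0.06 μg/mL. Medium: Muller-Hinton II […]; NCCLS M7-A2 broth dilution. Endpoint: lowest concentration inhibiting growth. Strains include methicillin-, penicillin- and/or vancomycin-resistant clinical isolates.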

Streptococcus sp. = test system: Streptococcus sp.
In short: (§1)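 Following NCCLS approved standard M7-A2, compounds are serially diluted from 64 to 0.06 μg/mL in Muller-Hinton II […] and inoculated at 5×10^5 CFU/mL; the MIC is the minimum concentration at which growth is inhibited.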

Staphylococcus sp. = test system: Staphylococcus sp.
In short: as §1

Enterococcus sp. = test system: Enterococcus sp.
In short: as §1

## α-O-[(Heptylamino)carbonyl]-cyclo(glycyl-β-methylphenylalanyl-O-(4-O-hexopyranosylhexopyranosyl)tyrosyl-3-(2-iminoimidazolidin-4-yl)seryl-3-(3-hexopyranosyl-2-iminoimidazolidin-4-yl)serylseryl] [Example 253]
Escherichia coli; Escherichia coli (ATCC 25922)
  MIC Escherichia coli (ATCC 25922): >64 µg/mL
Escherichia coli; Escherichia coli (GC 4559)
  MIC Escherichia coli (GC 4559): >64 µg/mL
Escherichia coli; Escherichia coli (GC 4560)
  MIC Escherichia coli (GC 4560): 2 µg/mL
Streptococcus sp.; Streptococcus agalactiae (GC 4564)
  MIC Streptococcus agalactiae (GC 4564): 32 µg/mL
Streptococcus sp.; Streptococcus pneumoniae (ATCC 6301)
  MIC Streptococcus pneumoniae (ATCC 6301): 16 µg/mL
Streptococcus sp.; Streptococcus pneumoniae (GC 1894)
  MIC Streptococcus pneumoniae (GC 1894): 8 µg/mL
Streptococcus sp.; Streptococcus pneumoniae (GC 4565)
  MIC Streptococcus pneumoniae (GC 4565): 16 µg/mL
Streptococcus sp.; Streptococcus pyogenes (GC 4563)
  MIC Streptococcus pyogenes (GC 4563): 32 µg/mL
Streptococcus sp.; broth dilution, strain ATCC 6301
  MIC Streptococcus pneumoniae (ATCC 6301): 16 µg/mL
Streptococcus sp.; broth dilution, strain GC 1894
  MIC Streptococcus pneumoniae (GC 1894): 8 µg/mL
Streptococcus sp.; broth dilution, strain GC 4563
  MIC Streptococcus pyogenes (GC 4563): 32 µg/mL
Streptococcus sp.; broth dilution, strain GC 4564
  MIC Streptococcus agalactiae (GC 4564): 32 µg/mL
Streptococcus sp.; broth dilution, strain GC 4565
  MIC Streptococcus pneumoniae (GC 4565): 16 µg/mL
Staphylococcus sp.; Coagulase Negative Staphylococcus (GC 4547)
  MIC Coagulase Negative Staphylococcus (GC 4547): 64 µg/mL
Staphylococcus sp.; Coagulase Negative Staphylococcus (GC 4548)
  MIC Coagulase Negative Staphylococcus (GC 4548): 64 µg/mL
Staphylococcus sp.; Coagulase Negative Staphylococcus (GC 4549)
  MIC Coagulase Negative Staphylococcus (GC 4549): 64 µg/mL
Staphylococcus sp.; Coagulase Negative Staphylococcus (GC 4551)
  MIC Coagulase Negative Staphylococcus (GC 4551): >64 µg/mL
Staphylococcus sp.; Coagulase Negative Staphylococcus (GC 6257)
  MIC Coagulase Negative Staphylococcus (GC 6257): 32 µg/mL
Staphylococcus sp.; Staphylococcus aureus (ATCC 29213)
  MIC Staphylococcus aureus (ATCC 29213): >64 µg/mL
Staphylococcus sp.; Staphylococcus aureus (GC 1131)
  MIC Staphylococcus aureus (GC 1131): >64 µg/mL
Staphylococcus sp.; Staphylococcus aureus (GC 3051)
  MIC Staphylococcus aureus (GC 3051): >64 µg/mL
Staphylococcus sp.; Staphylococcus aureus (GC 3053)
  MIC Staphylococcus aureus (GC 3053): >64 µg/mL
Staphylococcus sp.; Staphylococcus aureus (GC 4541)
  MIC Staphylococcus aureus (GC 4541): 64 µg/mL
Staphylococcus sp.; Staphylococcus aureus (GC 4542)
  MIC Staphylococcus aureus (GC 4542): >64 µg/mL
Staphylococcus sp.; Staphylococcus aureus (GC 4544)
  MIC Staphylococcus aureus (GC 4544): >64 µg/mL
Staphylococcus sp.; Staphylococcus aureus (GC 4545)
  MIC Staphylococcus aureus (GC 4545): 64 µg/mL
Staphylococcus sp.; Staphylococcus aureus-SMITH (GC 4543)
  MIC Staphylococcus aureus-SMITH (GC 4543): 64 µg/mL
Staphylococcus sp.; Staphylococcus haemolyticus (GC 4546)
  MIC Staphylococcus haemolyticus (GC 4546): 64 µg/mL
Staphylococcus sp.; broth dilution, strain ATCC 29213
  MIC Staphylococcus aureus (ATCC 29213): >64 µg/mL
Staphylococcus sp.; broth dilution, strain GC 1131
  MIC Staphylococcus aureus (GC 1131): >64 µg/mL
Staphylococcus sp.; broth dilution, strain GC 3051
  MIC Staphylococcus aureus (GC 3051): >64 µg/mL
Staphylococcus sp.; broth dilution, strain GC 3053
  MIC Staphylococcus aureus (GC 3053): >64 µg/mL
Staphylococcus sp.; broth dilution, strain GC 4541
  MIC Staphylococcus aureus (GC 4541): 64 µg/mL
Staphylococcus sp.; broth dilution, strain GC 4542
  MIC Staphylococcus aureus (GC 4542): >64 µg/mL
Staphylococcus sp.; broth dilution, strain GC 4543
  MIC Staphylococcus aureus-SMITH (GC 4543): 64 µg/mL
Staphylococcus sp.; broth dilution, strain GC 4544
  MIC Staphylococcus aureus (GC 4544): >64 µg/mL
Staphylococcus sp.; broth dilution, strain GC 4545
  MIC Staphylococcus aureus (GC 4545): 64 µg/mL
Staphylococcus sp.; broth dilution, strain GC 4546
  MIC Staphylococcus haemolyticus (GC 4546): 64 µg/mL
Staphylococcus sp.; broth dilution, strain GC 4547
  MIC Coagulase Negative Staphylococcus (GC 4547): 64 µg/mL
Staphylococcus sp.; broth dilution, strain GC 4548
  MIC Coagulase Negative Staphylococcus (GC 4548): 64 µg/mL
Staphylococcus sp.; broth dilution, strain GC 4549
  MIC Coagulase Negative Staphylococcus (GC 4549): 64 µg/mL
Staphylococcus sp.; broth dilution, strain GC 4551
  MIC Coagulase Negative Staphylococcus (GC 4551): >64 µg/mL
Staphylococcus sp.; broth dilution, strain GC 6257
  MIC Coagulase Negative Staphylococcus (GC 6257): 32 µg/mL
Enterococcus sp.; Enterococcus avium (GC 4558)
  MIC Enterococcus avium (GC 4558): 64 µg/mL
Enterococcus sp.; Enterococcus faecalis (ATCC 29212)
  MIC Enterococcus faecalis (ATCC 29212): >64 µg/mL
Enterococcus sp.; Enterococcus faecalis (GC 2242)
  MIC Enterococcus faecalis (GC 2242): >64 µg/mL
Enterococcus sp.; Enterococcus faecalis (GC 2691)
  MIC Enterococcus faecalis (GC 2691): >64 µg/mL
Enterococcus sp.; Enterococcus faecalis (GC 3059)
  MIC Enterococcus faecalis (GC 3059): >64 µg/mL
Enterococcus sp.; Enterococcus faecalis (GC 4552)
  MIC Enterococcus faecalis (GC 4552): >64 µg/mL
Enterococcus sp.; Enterococcus faecalis (GC 4553)
  MIC Enterococcus faecalis (GC 4553): >64 µg/mL
Enterococcus sp.; Enterococcus faecalis (GC 4554)
  MIC Enterococcus faecalis (GC 4554): >64 µg/mL
Enterococcus sp.; Enterococcus faecalis (GC 6189)
  MIC Enterococcus faecalis (GC 6189): >64 µg/mL
Enterococcus sp.; Enterococcus faecium (GC 2243)
  MIC Enterococcus faecium (GC 2243): >64 µg/mL
Enterococcus sp.; Enterococcus faecium (GC 4556)
  MIC Enterococcus faecium (GC 4556): >64 µg/mL
Enterococcus sp.; Enterococcus faecium (GC 4557)
  MIC Enterococcus faecium (GC 4557): 32 µg/mL
Enterococcus sp.; broth dilution, strain ATCC 29212
  MIC Enterococcus faecalis (ATCC 29212): >64 µg/mL
Enterococcus sp.; broth dilution, strain GC 2242
  MIC Enterococcus faecalis (GC 2242): >64 µg/mL
Enterococcus sp.; broth dilution, strain GC 2243
  MIC Enterococcus faecium (GC 2243): >64 µg/mL
Enterococcus sp.; broth dilution, strain GC 2691
  MIC Enterococcus faecalis (GC 2691): >64 µg/mL
Enterococcus sp.; broth dilution, strain GC 3059
  MIC Enterococcus faecalis (GC 3059): >64 µg/mL
Enterococcus sp.; broth dilution, strain GC 4552
  MIC Enterococcus faecalis (GC 4552): >64 µg/mL
Enterococcus sp.; broth dilution, strain GC 4553
  MIC Enterococcus faecalis (GC 4553): >64 µg/mL
Enterococcus sp.; broth dilution, strain GC 4554
  MIC Enterococcus faecalis (GC 4554): >64 µg/mL
Enterococcus sp.; broth dilution, strain GC 4556
  MIC Enterococcus faecium (GC 4556): >64 µg/mL
Enterococcus sp.; broth dilution, strain GC 4557
  MIC Enterococcus faecium (GC 4557): 32 µg/mL
Enterococcus sp.; broth dilution, strain GC 4558
  MIC Enterococcus avium (GC 4558): 64 µg/mL
Enterococcus sp.; broth dilution, strain GC 6189
  MIC Enterococcus faecalis (GC 6189): >64 µg/mL
